Columns and labels:
A549 [1] = assay: Clonogenic assay; type: cell-based; conditions: A549, adenocarcinoma
Method: (§1) Tested cells were seeded respectively in 6 well plates with 10^4 cells per well for 14 days. […] After the treatments, cells were washed with PBS, and the colonies were fixed with fix solution (methanol: acetic acid=3:1) and stained with 0.5% crystal violet in methanol. After removing the crystal violet carefully and rinse with tap water, the colonies were counted manually.

CL152 [2] = assay: Clonogenic assay; type: cell-based; conditions: CL152, squamous cell carcinoma
Method: as §1

CL97 [3] = assay: Clonogenic assay; type: cell-based; conditions: CL97, adenocarcinoma
Method: as §1

GBM8401 = assay: Clonogenic assay; type: cell-based; conditions: GBM8401, brain cancer
Method: as §1

H1299 = assay: Clonogenic assay; type: cell-based; conditions: H1299, large cell carcinoma
Method: as §1

CL141 [4] = assay: Side population analysis by flow cytometry (Hoechst 33342); type: cell-based; conditions: CL141, adenocarcinoma
Method: (§2) Single-cell suspensions of cells were detached from dishes with Trypsin-EDTA (Invitrogen) and suspended at 1×10^6 cells/mL in Hank's balanced salt solution ([…]) supplemented with 3% fetal calf serum and 10 mM Hepes. These cells were then incubated at 37° C. for 90 minutes with 20 μg/mL Hoechst 33342 (Sigma Chemical, St. Louis, Mo.). […] After 90 minutes incubation with indicated drugs, the cells were centrifuged immediately for 5 minutes at 300 g and 4° C. and resuspended in ice-cold HBSS, The cells were kept on ice to inhibit efflux of the Hoechst dye, and 1 μg/mL propidium iodide (PI, BD) were added to discriminate dead cells. Finally, these cells were filtered through a 40 μm cell strainer (BD) to obtain single-suspension cells. Cell dual-wavelength analysis and purification were performed on a dual-laser FACS Vantage SE (BD). Hoechst 33342 can be excited at 355 nm UV light and emitted blue fluorescence with a 450/20 band-pass (BP) filter and red fluorescence with a 675 nm edge filter long-pass (EFLP). A 610 nm dichroic mirror short-pass (DMSP) was used to separate the emission wavelengths. PI-positive (dead) cells were excluded from the analysis.
(§3) A549, A549-ON, CL97, CL141, HCC827, and H441 were lung adenocarcinoma cell lines. CL152, H2170, and H226 were squamous cell carcinoma cell lines. Cell viability was determined by SRB assay. […] To determine whether side population (SP) cells, which represent a cell population with CSC characteristics, exist in NSCLC cell lines, we stained the cells with the fluorescent dye, Hoechst 33342, and analyzed the cells with flow cytometry.

CL152 [5] = assay: as above; type: cell-based; conditions: CL152, squamous cell carcinoma
Method: as §2, §3

A549 [6] = assay: Aldefluor assay (ALDH-positive cell population); type: cell-based; conditions: A549, adenocarcinoma
Method: (§4) Briefly, single cells obtained from cell cultures were incubated in an Aldefluor assay buffer containing an ALDH substrate (bodipy-aminoacetaldehyde, BAAA) for 50 minutes at 37° C.

CL141 [7] = assay: Aldefluor assay (ALDH-positive cell population); type: cell-based; conditions: CL141, adenocarcinoma
Method: as §4

CL97 [8] = assay: Aldefluor assay (ALDH-positive cell population); type: cell-based; conditions: CL97, adenocarcinoma
Method: as §4

H441 = assay: Aldefluor assay (ALDH-positive cell population); type: cell-based, human; conditions: H441, adenocarcinoma
Method: as §4

[9] = test system: NCI-H441 cells expressing firefly luciferase; assay: NCI-H441 firefly luciferase tail vein tumor model, drug combination test; type: in vivo, mice; conditions: prochlorperazine 1 mg/kg + pemetrexed 1 mg/kg; p<0.05
Method: In the first drug combination test, NCI-H441 cells expressing firefly luciferase (6×10^5 cells/injection) were injected into NOD/SCID mice (4-6 week of age) via the lateral tail vein for tumor establishment. […] Tumor burden from different groups were recorded by caliper. The change in tumor size was expressed as in fold change and plotted over time. Subsequently, we performed another set of drug combination test. […] For lung adenocarcinoma, the standard drug combination is pemetrexed and cisplatin whereas are used gemcitabine and cisplatin for lung squamous carcinoma. […] CL97 cancer cells (1.5×10^6 cells per injection) were injected subcutaneously into NOD/SCID mice to establish in viva tumor model.
In the drug combination test ([…]), NCI-H441 cells expressing firefly luciferase ([…] cells/injection) were injected into NOD/SCID mice (4-6 week of age) via the lateral tail vein for tumor establishment.

CL97 [10] = assay: CL97 (adenocarcinoma) tumor-bearing NOD/SCID mice, standard regimen combination; type: in vivo

For `CN1CCN(CCCN2c3ccccc3Sc3ccc(Cl)cc32)CC1` [prochlorperazine], the Clonogenic assay (A549 [1]) was 5 to 10 µM, the Clonogenic assay (CL152 [2]) was 5 to 10 µM and the Clonogenic assay (CL97 [3]) was 5 to 10 µM. The Clonogenic assay (GBM8401) was 3.33 to 10 µM, the Clonogenic assay (H1299) was 5 to 10 µM and the Side population (CL141 [4]) was over 10 µM. The Side population (CL152 [5]) was under 5 µM, the “ALDH^+ assay” value (A549 [6]) was under 5 µM and the “ALDH^+ assay” value (CL141 [7]) was under 5 µM. For the same compound, the “ALDH^+ assay” value (CL97 [8]) was under 5 µM, the “ALDH^+ assay” value (H441) was under 10 µM and the “tumor inhibitory effect, combination with pemetrexed” value [9] was “significantly better tumor inhibitory effect than any other groups”. For the same compound, the “tumor growth, prochlorperazine alone” value (CL97 [10]; 5 mg/kg) was “could inhibit tumor growth” and the “tumor growth, standard treatment combined with prochlorperazine” value (CL97 [10]; 50 mg/kg pemetrexed + 3 mg/kg cisplatin + 5 mg/kg prochlorperazine) was “more significantly inhibitory effect of tumor growth than other treatments”.

Source: patent US20170105999A1, “METHOD FOR TREATING DRUG RESISTANT CANCER” (NATIONAL YANG MING UNIVERSITY, priority 2014, published 2017)
